From patent US12534449B2, “Stable crystalline hydrate of clazosentan disodium salt” (Idorsia Pharmaceuticals Ltd, priority 2020, dated 2026)
Where a name gives a salt, the structure may show the parent alone.

Tests used:
[1] = Solubility of COMPOUND in water; conditions: room temperature
[2] = Gravimetric vapor sorption (GVS) analysis; format: physicochemical; conditions: for behaviour of water content with relative humidity (GVS): humidity scan; for water content (GVS) in equivalents of water: equilibrium / final water content
Procedure: Gravimetric vapor sorption analysis of form C was performed on a Hiden Isochema IGAsorp™ Model HAS-036-080. Approximately 20 mg of the sample was placed without any pre-treatment into a stainless-steel mesh sample holder. The measurement was run at 25° C. with changing the humidity in the order 40%-95%-0%-40% RH by steps of 5% RH and with maximum equilibration time of 24 h at each step. Gravimetric vapor sorption experiments for all the other hydrates disclosed herein were performed on a SPS 100n instrument from ProUmid GmbH & Co. KG. Typically, 10-20 mg of material were placed into tared aluminum pans without any pre-treatment. The measurements were again run at 25° C. and with changing the humidity in the order 20%-90%-0%-25% RH by steps of 5% and with maximum equilibration time of 24 h at each step. When plotting the data (see corresponding Figures), weight changes of one equivalent of water are indicated by dotted horizontal lines.

| SMILES | hydrate stoichiometry attributed from GVS water content / uptake ([2]; 25° C.) | behaviour of water content with relative humidity (GVS) ([2]; 25° C.) | water content (GVS) in equivalents of water [2] | further results |
| --- | --- | --- | --- | --- |
| COc1ccccc1Oc1c(NS(=O)(=O)c2ccc(C)cn2)nc(-c2ccnc(-c3nnn[nH]3)c2)nc1OCCO [COMPOUND, 5-methyl-pyridine-2-sulfonic acid N-{6-(2-hydroxy-ethoxy)-5-(2-methoxy-phenoxy)-2-[2-(1H-tetrazol-5-yl)-pyridin-4-yl]-pyrimidin-4-yl}-amide disodium salt] | – | – | – | solubility in water [1]: about 25 g in 100 mL |
| COc1ccccc1Oc1c([N-]S(=O)(=O)c2ccc(C)cn2)nc(-c2ccnc(-c3nnn[n-]3)c2)nc1OCCO.[Na+].[Na+] [form P] | trihydrate | – | – | – |
| COc1ccccc1Oc1c([N-]S(=O)(=O)c2ccc(C)cn2)nc(-c2ccnc(-c3nnn[n-]3)c2)nc1OCCO.[Na+].[Na+] [form C] | – | stable with a slight increase between 5% and 95% RH | – | behaviour of water content below 5% RH (GVS) ([2]; 25° C., below 5% RH): decreases dramatically; water content at the starting point (GVS) ([2]; 40% RH, 25° C., dry basis): 14% |
| COc1ccccc1Oc1c([N-]S(=O)(=O)c2ccc(C)cn2)nc(-c2ccnc(-c3nnn[n-]3)c2)nc1OCCO.[Na+].[Na+] [form E] | – | – | approx. 1 equivalents | water content at equilibrium (GVS scan) ([2]; 25° C.): 3% |
| COc1ccccc1Oc1c([N-]S(=O)(=O)c2ccc(C)cn2)nc(-c2ccnc(-c3nnn[n-]3)c2)nc1OCCO.[Na+].[Na+] [form N] | tetrahydrate | noticeable adsorption of excess water with increasing relative humidity | – | – |
| COc1ccccc1Oc1c([N-]S(=O)(=O)c2ccc(C)cn2)nc(-c2ccnc(-c3nnn[n-]3)c2)nc1OCCO.[Na+].[Na+] [form L] | – | – | 3 equivalents | final water content (GVS experiment) ([2]; dried at 0% RH, then re-humidified at 40% RH): about 8% |
